For assay [1], the target named is T1, BTK (Homo sapiens, UniProt Q06187).
T1 construct: High control=Cell group with added DMSO and without compound, indicating microplate readings without BTK degradation; endogenous in cells; host or cells: TMD-8
As to the kind of experiment: BTK degradation in TMD-8 cells (HTRF assay). It counts as cell-based. As to conditions: 6 h treatment, IC50 (DC50) of BTK degradation. The procedure, abridged: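 TMD-8 cells were exposed for 6 h to 8 compound doses (6-fold serial dilution, 0.2% DMSO). Lysed cells were incubated overnight at room temperature with HTRF antibodies and read at 665/620 nm. DC50 came from four-parameter fitting of % inhibition versus concentration.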
Background: In TR-FRET formats the signal depends on donor and acceptor labels being close together.

For assay [2], the system named is HEK-293 cells. The assay is described as follows: HEK-293 cytotoxicity detection (CellTiter-Glo). To be noted: HEK-293 cells, 72 h incubation, CellTiter-Glo luminescence, IC50 of cell proliferation inhibition, read-out: HEK293. Format: cell-based. Summed up: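 HEK-293 cells exposed 72 h to an 8-point, 4-fold dilution series (top 500× stock 5 mM in DMSO; 0.2% DMSO final). Viability by CellTiter-Glo luminescence after 10 min at room temperature; IC50 from four-parameter Hill fit of percent inhibition.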
Background: In ATP-based viability assays light output follows the ATP content of the culture.

Like-named read-outs stand apart in the source and are kept apart here. Bounds are passed on as bounds.

A word on the DC50: it is the midpoint of the concentration-degradation curve. A low value points to degradation at low concentration.

T1 sequence (Q06187 whole entry): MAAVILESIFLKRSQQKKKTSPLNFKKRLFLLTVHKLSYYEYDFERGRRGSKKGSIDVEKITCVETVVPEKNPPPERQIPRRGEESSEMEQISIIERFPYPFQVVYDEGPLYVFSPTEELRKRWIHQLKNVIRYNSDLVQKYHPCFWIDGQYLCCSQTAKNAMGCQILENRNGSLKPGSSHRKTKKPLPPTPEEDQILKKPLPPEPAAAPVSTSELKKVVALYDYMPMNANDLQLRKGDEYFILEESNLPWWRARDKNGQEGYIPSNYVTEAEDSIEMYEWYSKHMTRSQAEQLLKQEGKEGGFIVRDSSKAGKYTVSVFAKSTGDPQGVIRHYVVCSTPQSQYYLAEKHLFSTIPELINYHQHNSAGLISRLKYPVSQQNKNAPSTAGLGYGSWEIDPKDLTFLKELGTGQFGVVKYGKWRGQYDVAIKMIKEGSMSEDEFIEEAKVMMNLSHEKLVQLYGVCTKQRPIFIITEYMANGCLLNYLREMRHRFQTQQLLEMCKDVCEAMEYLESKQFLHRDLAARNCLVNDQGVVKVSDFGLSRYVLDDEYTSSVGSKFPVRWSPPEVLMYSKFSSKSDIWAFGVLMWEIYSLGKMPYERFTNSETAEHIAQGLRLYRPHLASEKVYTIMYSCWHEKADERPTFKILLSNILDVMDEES

In assay [1], `Cc1cc(-c2ncnc3[nH]c4cc(CN5CCN(CC6CCN(c7ccc(N8CCC(=O)NC8=O)cc7)CC6)CC5)ccc4c23)ccc1[C@@H](C)NC(=O)c1nc(C(C)(C)C)no1` [Example 104, (R)-3-(tert-butyl)-N-(1-(4-(7-((4-((1-(4-(2,4-dioxotetrahydropyrimidin-1(2H)-yl)phenyl)piperidin-4-yl)methyl)piperazin-1-yl)methyl)-9H-pyrimido[4,5-b]indol-4-yl)-2-methylphenyl)ethyl)-1,2,4-oxadiazole-5-carboxamide] displayed a half-maximal degradation concentration (DC50) of 1.16 nM. Further, the IC50 in assay [2] (Homo sapiens) was above 10000 nM.
The corresponding values for `COc1cc2c(cc1N1CCN(CCc3ccc(C4(C)CCC(=O)NC4=O)cc3)CC1)[nH]c1ncnc(-c3ccc([C@@H](C)NC(=O)c4nc(C(C)(C)C)no4)c(C)c3)c12` (stereo partly drawn) [Example 92, 3-(tert-butyl)-N-((1R)-1-(4-(6-methoxy-7-(4-(4-(3-methyl-2,6-dioxopiperidin-3-yl)phenethyl)piperazin-1-yl)-9H-pyrimido[4,5-b]indol-4-yl)-2-methylphenyl)ethyl)-1,2,4-oxadiazole-5-carboxamide] are 3.08 nM and above 10000 nM.
In the same order, the values of `COc1cc2c(cc1N1CCN(C3CCN(c4cccc(C5CCC(=O)NC5=O)c4)C3)CC1)[nH]c1ncnc(-c3ccc([C@@H](C)NC(=O)c4nc(C(C)(C)C)no4)c(C)c3F)c12` (stereo partly drawn) [Example 57, 3-(tert-butyl)-N-((1R)-1-(4-(7-(4-(1-(3-(2,6-dioxopiperidin-3-yl)phenyl)pyrrolidin-3-yl)piperazin-1-yl)-6-methoxy-9H-pyrimido[4,5-b]indol-4-yl)-3-fluoro-2-methylphenyl)ethyl)-1,2,4-oxadiazole-5-carboxamide] are 9.6 nM and above 10000 nM.
In assay [1], `COc1cc2c(cc1N1CCN(C3CC(c4ccc([C@H]5CCC(=O)NC5=O)cc4)C3)CC1)[nH]c1ncnc(-c3ccc([C@@H](C)NC(=O)c4noc(C(C)(C)C)n4)c(C)c3F)c12` (stereo partly drawn) [Example 60, 5-(tert-butyl)-N—((R)-1-(4-(7-(4-(3-(4-((R)-2,6-dioxopiperidin-3-yl)phenyl)cyclobutyl)piperazin-1-yl)-6-methoxy-9H-pyrimido[4,5-b]indol-4-yl)-3-fluoro-2-methylphenyl)ethyl)-1,2,4-oxadiazole-3-carboxamide] had a DC50 of 4.97 nM. Also, the IC50 in assay [2] (Homo sapiens) was above 10000 nM.
The corresponding values for `Cc1cc(-c2ncnc3[nH]c4cc(N5CCN(C6CC(c7ccc(N8CCC(=O)NC8=O)cc7)C6)CC5)ccc4c23)ccc1[C@@H](C)NC(=O)c1nc(C2(C)CC2)no1` (stereo partly drawn) [Example 125, (R)—N-(1-(4-(7-(4-(3-(4-(2,4-dioxotetrahydropyrimidin-1(2H)-yl)phenyl)cyclobutyl)piperazin-1-yl)-9H-pyrimido[4,5-b]indol-4-yl)-2-methylphenyl)ethyl)-3-(1-methylcyclopropyl)-1,2,4-oxadiazole-5-carboxamide] are 0.197 nM and above 10000 nM.
The corresponding values for `COc1cc2c(cc1N1CCN(C3CC(c4ccc([C@H]5CCC(=O)NC5=O)cc4)C3)CC1)[nH]c1ncnc(-c3ccc([C@@H](C)NC(=O)c4nc(C(C)(C)C)no4)c(C)c3F)c12` (stereo partly drawn) [Example 56, 3-(tert-butyl)-N—((R)-1-(4-(7-(4-(3-(4-((R)-2,6-dioxopiperidin-3-yl)phenyl)cyclobutyl)piperazin-1-yl)-6-methoxy-9H-pyrimido[4,5-b]indol-4-yl)-3-fluoro-2-methylphenyl)ethyl)-1,2,4-oxadiazole-5-carboxamide] are 10.3 nM and above 10000 nM.
In the same order, the values of `Cc1cc(-c2ncnc3[nH]c4cc(N5CCC6(CC5)CCN(C5CC(c7ccc(NC8CCC(=O)NC8=O)cc7)C5)C6)ccc4c23)ccc1[C@@H](C)NC(=O)c1nc(C(C)(C)C)no1` (stereo partly drawn) [Example 103, 3-(tert-butyl)-N-((1R)-1-(4-(7-(2-(3-(4-((2,6-dioxopiperidin-3-yl)amino)phenyl)cyclobutyl)-2,8-diazaspiro[4.5]decan-8-yl)-9H-pyrimido[4,5-b]indol-4-yl)-2-methylphenyl)ethyl)-1,2,4-oxadiazole-5-carboxamide] are 3.05 nM and 1060 nM.
In assay [1], `Cc1c([C@@H](C)NC(=O)c2noc(C(C)(C)C)n2)ccc(-c2ncnc3[nH]c4cc(N5CCN(CCc6ccc(SC7CCC(=O)NC7=O)cc6)CC5)ccc4c23)c1F` (stereo partly drawn) [Example 80, 5-(tert-butyl)-N-((1R)-1-(4-(7-(4-(4-((2,6-dioxopiperidin-3-yl)thio)phenethyl)piperazin-1-yl)-9H-pyrimido[4,5-b]indol-4-yl)-3-fluoro-2-methylphenyl)ethyl)-1,2,4-oxadiazole-3-carboxamide] showed a DC50 of 16.6 nM. Also, the IC50 in assay [2] (Homo sapiens) is above 10000 nM.
The corresponding values for `Cc1cc(-c2ncnc3[nH]c4cc(C5CCN(C6CC(c7ccc(C8CCC(=O)NC8=O)cc7)C6)CC5)ncc4c23)ccc1[C@@H](C)NC(=O)c1nc(C(C)(C)C)no1` (stereo partly drawn) [Example 41, 3-(tert-butyl)-N-((1R)-1-(4-(7-(1-(3-(4-(2,6-dioxopiperidin-3-yl)phenyl)cyclobutyl)piperidin-4-yl)-9H-pyrido[3′,4′:4,5]pyrrolo[2,3-d]pyrimidin-4-yl)-2-methylphenyl)ethyl)-1,2,4-oxadiazole-5-carboxamide] are 1.85 nM and 3350 nM.
The corresponding values for `COc1cc2c(cc1N1CCN([C@H]3C[C@@H](c4ccc(O[C@@H]5CCC(=O)NC5=O)cc4)C3)CC1)[nH]c1ncnc(-c3ccc([C@@H](C)NC(=O)c4nc(C(C)(C)C)no4)c(C)c3)c12` [Example 127, 3-(tert-butyl)-N—((R)-1-(4-(7-(4-((1S,3s)-3-(4-(((R)-2,6-dioxopiperidin-3-yl)oxy)phenyl)cyclobutyl)piperazin-1-yl)-6-methoxy-9H-pyrimido[4,5-b]indol-4-yl)-2-methylphenyl)ethyl)-1,2,4-oxadiazole-5-carboxamide] are 2.49 nM and above 10000 nM.
The corresponding values for `Cc1cc(-c2ncnc3[nH]c4cc(CCN5CCN(C6CN(c7ccc(N8CCC(=O)NC8=O)cc7)C6)CC5)ccc4c23)ccc1[C@@H](C)NC(=O)c1nc(C(C)(C)C)no1` [Example 105, (R)-3-(tert-butyl)-N-(1-(4-(7-(2-(4-(1-(4-(2,4-dioxotetrahydropyrimidin-1(2H)-yl)phenyl)azetidin-3-yl)piperazin-1-yl)ethyl)-9H-pyrimido[4,5-b]indol-4-yl)-2-methylphenyl)ethyl)-1,2,4-oxadiazole-5-carboxamide] are 0.512 nM and above 10000 nM.
As for `Cc1cc(-c2ncnc3[nH]c4cc(N5CCN(C6CC(c7ccc([C@@H]8CCC(=O)NC8=O)cc7)C6)CC5)ccc4c23)ccc1[C@@H](C)NC(=O)c1nc(C2(C)CC2)no1` (stereo partly drawn) [Example 68, N—((R)-1-(4-(7-(4-(3-(4-((S)-2,6-dioxopiperidin-3-yl)phenyl)cyclobutyl)piperazin-1-yl)-9H-pyrimido[4,5-b]indol-4-yl)-2-methylphenyl)ethyl)-3-(1-methylcyclopropyl)-1,2,4-oxadiazole-5-carboxamide], it took 1.6 nM to reach half-maximal degradation in assay [1] (DC50). Further, the IC50 in assay [2] is above 10000 nM.
`Cc1cc(-c2ncnc3[nH]c4cc(N5CCN(C6CC(c7ccc([C@@H]8CCC(=O)NC8=O)cc7)C6)CC5)ccc4c23)c(F)cc1[C@@H](C)NC(=O)c1nc(C2(C)CC2)no1` (stereo partly drawn) [Example 90, N—((R)-1-(4-(7-(4-(3-(4-((S)-2,6-dioxopiperidin-3-yl)phenyl)cyclobutyl)piperazin-1-yl)-9H-pyrimido[4,5-b]indol-4-yl)-5-fluoro-2-methylphenyl)ethyl)-3-(1-methylcyclopropyl)-1,2,4-oxadiazole-5-carboxamide] yielded a DC50 in assay [1] of 0.86 nM. In addition, the IC50 in assay [2] (Homo sapiens) is above 10000 nM.
`CN1CCN(CC2CCN(c3ncnc4[nH]c5cc(N6CCN(CC7CCN(c8ccc(N9CCC(=O)NC9=O)cc8)CC7)CC6)ccc5c34)CC2)C1=O` [Example 81, 1-(4-(4-((4-(4-(4-((3-methyl-2-oxoimidazolidin-1-yl)methyl)piperidin-1-yl)-9H-pyrimido[4,5-b]indol-7-yl)piperazin-1-yl)methyl)piperidin-1-yl)phenyl)dihydropyrimidine-2,4(1H,3H)-dione] returned a DC50 in assay [1] above 2000 nM. Also, in assay [2] (Homo sapiens), the IC50 is above 10000 nM.
In the same order, the values of `Cc1cc(-c2ncnc3[nH]c4cc(N5CCN([C@H]6C[C@@H](c7ccc(NC8CCC(=O)NC8=O)cc7)C6)CC5)ccc4c23)ccc1[C@@H](C)NC(=O)c1nc(C2(C)CC2)no1` (stereo partly drawn) [Example 115, N-((1R)-1-(4-(7-(4-((1s,3s)-3-(4-((2,6-dioxopiperidin-3-yl)amino)phenyl)cyclobutyl)piperazin-1-yl)-9H-pyrimido[4,5-b]indol-4-yl)-2-methylphenyl)ethyl)-3-(1-methylcyclopropyl)-1,2,4-oxadiazole-5-carboxamide] are 0.759 nM and above 10000 nM.
In the same order, the values of `Cc1cc(-c2ncnc3[nH]c4cc(N5CCN([C@H]6C[C@@H](c7ccc(N[C@@H]8CCC(=O)NC8=O)cc7)C6)CC5)ccc4c23)ccc1[C@@H](C)NC(=O)c1nc(C2(C)CC2)no1` [Example 118, N—((R)-1-(4-(7-(4-((1S,3s)-3-(4-(((R)-2,6-dioxopiperidin-3-yl)amino)phenyl)cyclobutyl)piperazin-1-yl)-9H-pyrimido[4,5-b]indol-4-yl)-2-methylphenyl)ethyl)-3-(1-methylcyclopropyl)-1,2,4-oxadiazole-5-carboxamide] are 1.73 nM and above 10000 nM.

The record behind these values is patent publication US20240366770A1, “DEGRADATION OF BRUTON'S TYROSINE KINASE (BTK) BY CONJUGATION OF BTK INHIBITORS WITH E3 LIGASE LIGAND AND METHODS OF USE” (BeiGene Switzerland GmbH, priority 2021, published 2024).
